18 molecules from patent publication US10952436B2, “Microbiocidal quinoline (thio)carboxamide derivatives” (SYNGENTA PARTICIPATIONS AG, priority 2017, dated 2021) can be followed below.

A value given as a limit tells only on which side of the number the result lay.

Series [1] relates to Glomerella lagenarium (Colletotrichum lagenarium). In words: Glomerella lagenarium (Colletotrichum lagenarium)/Liquid Culture (Anthracnose). In kind it is cell-based. Particulars: Colletotrichum orbiculare; 200 ppm; liquid culture, compared to untreated control, 3-4 days after application; read-out: control of Glomerella lagenarium.
Series [2] relates to Fusarium culmorum. Nature of the series: microbe, parasite or virus in culture. In kind it is cell-based. Particulars: read-out: control of Fusarium culmorum.
Series [3] relates to Botryotinia fuckeliana (Botrytis cinerea). In words: Botryotinia fuckeliana (Botrytis cinerea)/Liquid Culture (Gray Mould). In kind it is cell-based. The following applies: 200 ppm, liquid culture, compared to untreated control, 3-4 days after application, read-out: control of Botryotinia fuckeliana.
For another series, the system named is Sclerotinia sclerotiorum. In words: Sclerotinia sclerotiorum/Liquid Culture (Cottony Rot). The following applies: read-out: control of Sclerotinia sclerotiorum.
The test system of series [4] is Fusarium culmorum. Nature of the series: whole plant or invertebrate. In kind it is in vivo. Particulars: in Triticum aestivum, read-out: control of Fusarium culmorum.
Series [5] has as its system Magnaporthe grisea (Pyricularia oryzae). In words: microbe, parasite or virus in culture. It counts as cell-based. The following applies: read-out: control of Magnaporthe grisea.
The test system is the same in series [6]. In words: whole plant or invertebrate. The following applies: foliar, read-out: control of Magnaporthe grisea. It counts as in vivo.
In series [7] the test system is Monographella nivalis (Microdochium nivale). In words: Monographella nivalis (Microdochium nivale)/Liquid Culture (Foot Rot Cereals). It counts as cell-based. The following applies: 200 ppm, liquid culture, compared to untreated control, 4-5 days after application, read-out: control of Monographella nivalis.

Description for Sclerotinia sclerotiorum: Mycelia fragments of a newly grown liquid culture of the fungus are directly mixed into nutrient broth (Vogels broth). After placing a (DMSO) solution of test compound into a microtiter plate (96-well format) the nutrient broth containing the fungal material is added. The test plates are incubated at 24° C. and the inhibition of growth is determined photometrically 3-4 days after application.

For `Cc1nc2c(F)cccc2cc1NC(=O)C(C)(Cc1cccc(F)c1)CC(F)(F)F` (stereo not drawn) [Compound E-8, 4,4,4-trifluoro-N-(8-fluoro-2-methyl-3-quinolyl)-2-[(3-fluorophenyl)methyl]-2-methyl-butanamide], the inhibition of growth at 200 ppm (in [1]; in the series on Fusarium culmorum [2]; in series [3]; in [5]) was at least 80% each time. The inhibition of growth at 20 ppm with Sclerotinia sclerotiorum was at least 80%. Also, the pest or weed control at 200 ppm (in the series with Fusarium culmorum [4]; in series [6]) was at least 80% throughout.
For orientation: melting point means the temperature of the solid-liquid transition. In the case of `C#CCC(C)(Cc1ccccc1)C(=O)Nc1cnc2c(F)cccc2c1` (stereo not drawn) [Compound E-26, 2-benzyl-N-(8-fluoro-3-quinolyl)-2-methyl-pent-4-ynamide], the melting point is 189 to 191 °C. Further, the inhibition of growth at 200 ppm in [1] is at least 80%. The inhibition of growth at 200 ppm in series [7] is at least 80%. Also, the inhibition of growth at 200 ppm in the series with Fusarium culmorum [2] was at least 80%. For the same molecule, in series [3], the inhibition of growth at 200 ppm was at least 80%. Besides, in series [5], the inhibition of growth at 200 ppm was at least 80%. The pest or weed control at 200 ppm in series [6] is at least 80%.
Molecule `CC#CCC(Cc1ccccc1)C(=O)Nc1cnc2c(F)cccc2c1` (stereo not drawn) [Compound E-29, 2-benzyl-N-(8-fluoro-3-quinolyl)hex-4-ynamide] displayed a melting point of 218 to 220 °C. Also, in [3], the inhibition of growth at 200 ppm is at least 80%. The inhibition of growth at 200 ppm in series [5] is at least 80%. For the same molecule, in series [6], the pest or weed control at 200 ppm is at least 80%.
`C=C(Cl)CC(Cc1ccccc1)C(=O)Nc1cnc2c(F)cccc2c1` (stereo not drawn) [Compound E-6, 2-benzyl-4-chloro-N-(8-fluoro-3-quinolyl)pent-4-enamide] registered a melting point of 166 to 168 °C. Also, the inhibition of growth at 200 ppm in series [1] is at least 80%. The inhibition of growth at 200 ppm in [7] was at least 80%. Besides, the inhibition of growth at 200 ppm in the series on Fusarium culmorum [2] was at least 80%. The inhibition of growth at 200 ppm in series [3] was at least 80%. In [6], the pest or weed control at 200 ppm is at least 80%.
As for `Cc1c(NC(=O)[C@@](C)(Cc2ccccc2)CC(C)C)cnc2c(F)cccc12` [Compound F-4, (2R)-2-benzyl-N-(8-fluoro-4-methyl-3-quinolyl)-2,4-dimethyl-pentanamide], the inhibition of growth at 200 ppm (in [1]; in the series on Fusarium culmorum [2]; in series [3]) was at least 80% in each case. Further, the pest or weed control at 200 ppm (with Fusarium culmorum [4]; in [6]) was at least 80% throughout.
Consider `CC(Cc1ccc(F)cc1)(CC(F)(F)F)C(=O)Nc1cnc2c(F)cccc2c1` (stereo not drawn) [Compound E-18, 4,4,4-trifluoro-2-[(4-fluorophenyl)methyl]-N-(8-fluoro-3-quinolyl)-2-methyl-butanamide], for which the inhibition of growth at 200 ppm (in [1]; in series [7]; in the series with Fusarium culmorum [2]; in [3]; in [5]) was at least 80% in each case. For the same molecule, in the series on Sclerotinia sclerotiorum, the inhibition of growth at 20 ppm was at least 80%. Moreover, in [6], the pest or weed control at 200 ppm is at least 80%.
In turn, `CC#CCC(C)(Cc1ccccc1)C(=O)Nc1cnc2c(F)cccc2c1` (stereo not drawn) [Compound E-30, 2-benzyl-N-(8-fluoro-3-quinolyl)-2-methyl-hex-4-ynamide] yielded a melting point of 136 to 138 °C. For the same molecule, the inhibition of growth at 200 ppm in series [7] is at least 80%. In addition, the inhibition of growth at 200 ppm in the series on Fusarium culmorum [2] is at least 80%. Moreover, the inhibition of growth at 200 ppm in series [3] was at least 80%. The inhibition of growth at 200 ppm in series [5] was at least 80%. In addition, the pest or weed control at 200 ppm in series [6] was at least 80%.
As to `CCCCC(C)(Cc1ccccc1)C(=O)Nc1cnc2c(F)cccc2c1` (stereo not drawn) [Compound E-27, 2-benzyl-N-(8-fluoro-3-quinolyl)-2-methyl-hexanamide], the melting point fell in the range of 135 to 137 °C. In addition, the inhibition of growth at 200 ppm in series [7] is at least 80%. Moreover, in the series with Fusarium culmorum [2], the inhibition of growth at 200 ppm was at least 80%. The inhibition of growth at 200 ppm in [3] is at least 80%. Further, in series [5], the inhibition of growth at 200 ppm is at least 80%. Moreover, the pest or weed control at 200 ppm in series [6] is at least 80%.
`C=C(C)C[C@@](C)(Cc1ccccc1)C(=O)Nc1cnc2c(F)cccc2c1` [Compound F-21, (2S)-2-benzyl-N-(8-fluoro-3-quinolyl)-2,4-dimethyl-pent-4-enamide]: the melting point fell in the range of 132 to 135 °C. The inhibition of growth at 200 ppm in [1] is at least 80%. In addition, in series [7], the inhibition of growth at 200 ppm is at least 80%. For the same molecule, the inhibition of growth at 200 ppm in the series on Fusarium culmorum [2] was at least 80%. Further, in series [3], the inhibition of growth at 200 ppm is at least 80%. The pest or weed control at 200 ppm in the series on Fusarium culmorum [4] is at least 80%. Moreover, the pest or weed control at 200 ppm in series [6] is at least 80%.
Take `C=C(C)C[C@](C)(Cc1ccccc1)C(=O)Nc1cc2cccc(F)c2nc1C` [Compound F-2, (2R)-2-benzyl-N-(8-fluoro-2-methyl-3-quinolyl)-2,4-dimethyl-pent-4-enamide]: the inhibition of growth at 200 ppm (in series [1]; with Fusarium culmorum [2]; in [3]; in [5]) was at least 80% throughout. For the same molecule, the inhibition of growth at 20 ppm with Sclerotinia sclerotiorum is at least 80%. In addition, the pest or weed control at 200 ppm (with Fusarium culmorum [4]; in [6]) was at least 80% each time.
Turning to `Cc1c(NC(=O)C(Cc2ccccc2)CC(C)C)cnc2c(F)cccc12` (stereo not drawn) [Compound E-19, 2-benzyl-N-(8-fluoro-4-methyl-3-quinolyl)-4-methyl-pentanamide], the inhibition of growth at 200 ppm (in series [1]; in the series with Fusarium culmorum [2]; in series [3]; in series [5]) was at least 80% in each case. Further, in the series with Sclerotinia sclerotiorum, the inhibition of growth at 20 ppm was at least 80%. Besides, the pest or weed control at 200 ppm (with Fusarium culmorum [4]; in series [6]) was at least 80% throughout.
Regarding `C=C(Cl)CC(C)(Cc1ccccc1)C(=O)Nc1cnc2c(F)cccc2c1` (stereo not drawn) [Compound E-53, 2-benzyl-4-chloro-N-(8-fluoro-3-quinolyl)-2-methyl-pent-4-enamide], the melting point lay within 148 to 150 °C. In addition, the inhibition of growth at 200 ppm in series [1] is at least 80%. Moreover, the inhibition of growth at 200 ppm in series [7] is at least 80%. For the same molecule, the inhibition of growth at 200 ppm in the series on Fusarium culmorum [2] is at least 80%. The inhibition of growth at 200 ppm in series [3] was at least 80%. The inhibition of growth at 20 ppm with Sclerotinia sclerotiorum was at least 80%. Moreover, in the series on Fusarium culmorum [4], the pest or weed control at 200 ppm is at least 80%. Further, the inhibition of growth at 200 ppm in series [5] is at least 80%.
As to `C#CCC(C)(Cc1ccccc1)C(=O)Nc1cc2cccc(F)c2nc1C` (stereo not drawn) [Compound E-2, 2-benzyl-N-(8-fluoro-2-methyl-3-quinolyl)-2-methyl-pent-4-ynamide], the inhibition of growth at 200 ppm (in series [1]; with Fusarium culmorum [2]; in [3]) was at least 80% throughout. The pest or weed control at 200 ppm (in the series with Fusarium culmorum [4]; in series [6]) was at least 80% each time.
With `C=C(C)CC(Cc1ccccc1)C(=O)Nc1cnc2c(F)cccc2c1C` (stereo not drawn) [Compound E-93, 2-benzyl-N-(8-fluoro-4-methyl-3-quinolyl)-4-methyl-pent-4-enamide], the melting point lay in the range of 116 to 118 °C. The inhibition of growth at 200 ppm in [1] was at least 80%. Besides, the inhibition of growth at 200 ppm in series [7] is at least 80%. For the same molecule, in the series with Fusarium culmorum [2], the inhibition of growth at 200 ppm is at least 80%. Besides, in [3], the inhibition of growth at 200 ppm was at least 80%. Further, in series [6], the pest or weed control at 200 ppm is at least 80%.
Take `Cc1nc2c(F)cccc2cc1NC(=O)C(Cc1ccccc1)CC(F)(F)F` (stereo not drawn) [Compound E-44, 2-benzyl-4,4,4-trifluoro-N-(8-fluoro-2-methyl-3-quinolyl)butanamide]: the inhibition of growth at 200 ppm (in [1]; in the series with Fusarium culmorum [2]; in [3]; in [5]) was at least 80% each time. In addition, the pest or weed control at 200 ppm (in the series on Fusarium culmorum [4]; in [6]) was at least 80% each time.
Take `CC(C)CC(F)(Cc1ccccc1)C(=O)Nc1cnc2c(F)cccc2c1` (stereo not drawn) [Compound E-1, 2-benzyl-2-fluoro-N-(8-fluoro-3-quinolyl)-4-methyl-pentanamide]: the inhibition of growth at 200 ppm (in series [1]; in [7]; in the series on Fusarium culmorum [2]; in [3]) was at least 80% throughout. Besides, the pest or weed control at 200 ppm (with Fusarium culmorum [4]; in series [6]) was at least 80% throughout.
As to `C=C(C)CC(CC)(Cc1ccccc1)C(=O)Nc1cnc2c(F)cccc2c1` (stereo not drawn) [Compound E-46, 2-benzyl-2-ethyl-N-(8-fluoro-3-quinolyl)-4-methyl-pent-4-enamide], the inhibition of growth at 200 ppm (in series [1]; in series [7]; in the series with Fusarium culmorum [2]; in [3]; in series [5]) was at least 80% throughout. Also, the pest or weed control at 200 ppm in series [6] was at least 80%.
For `Cc1nc2c(F)cccc2cc1NC(=O)C(C)(Cc1cccc(F)c1)CC(C)C` (stereo not drawn) [Compound E-10, N-(8-fluoro-2-methyl-3-quinolyl)-2-[(3-fluorophenyl)methyl]-2,4-dimethyl-pentanamide], the melting point was in the range of 93 to 95 °C. Moreover, in series [1], the inhibition of growth at 200 ppm was at least 80%. Further, the inhibition of growth at 200 ppm in series [7] was at least 80%. Further, the inhibition of growth at 200 ppm with Fusarium culmorum [2] was at least 80%. The inhibition of growth at 200 ppm in series [3] is at least 80%. Also, the inhibition of growth at 20 ppm in the series with Sclerotinia sclerotiorum was at least 80%. In addition, in the series with Fusarium culmorum [4], the pest or weed control at 200 ppm was at least 80%. The inhibition of growth at 200 ppm in series [5] is at least 80%.
